Assay results: publication PMC8154557 (Journal of Medicinal Chemistry, 2021)

Experiments:
[1] = molecular target: Stx1B (Shigella dysenteriae, UniProt Q7BQ98); assay: biochemical; type: binding, Escherichia coli
[2] = system: T84 cells; assay: TEER measurement of epithelial integrity; conditions: 10%, positive control, 24 h
[3] = system: T84 cells; assay: Viability MTT assay; conditions: 10%, positive control, 24 h

Chain of Stx1B (Q7BQ98 21-89 limits assumed): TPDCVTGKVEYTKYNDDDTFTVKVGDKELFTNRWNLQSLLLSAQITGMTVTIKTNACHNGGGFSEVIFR

Structure (SMILES)	rel. pot. per sugar [1]	rel.pot. [1]	also measured
OC[C@H]1O[C@@H](O[C@H]2[C@H](O)[C@@H](O)C(O)O[C@@H]2CO)[C@H](O)[C@@H](O)[C@H]1O (mixture of isomers) [Lactose, reference compound]	–	–	inhibition of the toxin (in words) [1]: did not show any activity
[N-]=[N+]=N[C@@H]1O[C@H](CO)[C@H](O[C@H]2O[C@H](CO)[C@H](O)[C@H](O)[C@H]2O)[C@H](O)[C@H]1O [Compound 1e]	1	–	–
O=C(O)c1cc(OCc2cn([C@@H]3O[C@H](CO)[C@H](O[C@H]4O[C@H](CO)[C@H](O)[C@H](O)[C@H]4O)[C@H](O)[C@H]3O)nn2)cc(OCc2cn([C@@H]3O[C@H](CO)[C@H](O[C@H]4O[C@H](CO)[C@H](O)[C@H](O)[C@H]4O)[C@H](O)[C@H]3O)nn2)c1 [Compound 3]	2.3	4.6	IC50 ([1]; IC50): 1000 µM
O=C(NCCOc1cc(OCCNC(=O)OCc2cn([C@@H]3O[C@H](CO)[C@H](O[C@H]4O[C@H](CO)[C@H](O)[C@H](O)[C@H]4O)[C@H](O)[C@H]3O)nn2)cc(C(=O)O)c1)OCc1cn([C@@H]2O[C@H](CO)[C@H](O[C@H]3O[C@H](CO)[C@H](O)[C@H](O)[C@H]3O)[C@H](O)[C@H]2O)nn1 [Compound 4]	2	4	–
O=C(O)c1cc(OCCNC(=O)c2cc(OCc3cn([C@@H]4O[C@H](CO)[C@H](O[C@H]5O[C@H](CO)[C@H](O)[C@H](O)[C@H]5O)[C@H](O)[C@H]4O)nn3)cc(OCc3cn([C@@H]4O[C@H](CO)[C@H](O[C@H]5O[C@H](CO)[C@H](O)[C@H](O)[C@H]5O)[C@H](O)[C@H]4O)nn3)c2)cc(OCCNC(=O)c2cc(OCc3cn([C@@H]4O[C@H](CO)[C@H](O[C@H]5O[C@H](CO)[C@H](O)[C@H](O)[C@H]5O)[C@H](O)[C@H]4O)nn3)cc(OCc3cn([C@@H]4O[C@H](CO)[C@H](O[C@H]5O[C@H](CO)[C@H](O)[C@H](O)[C@H]5O)[C@H](O)[C@H]4O)nn3)c2)c1 [Compound 5]	62.5	250	–
O=C(NCCCCCCCCCCCCNC(=O)c1cc(OCc2cn([C@@H]3O[C@H](CO)[C@H](O[C@H]4O[C@H](CO)[C@H](O)[C@H](O)[C@H]4O)[C@H](O)[C@H]3O)nn2)cc(OCc2cn([C@@H]3O[C@H](CO)[C@H](O[C@H]4O[C@H](CO)[C@H](O)[C@H](O)[C@H]4O)[C@H](O)[C@H]3O)nn2)c1)c1cc(OCc2cn([C@@H]3O[C@H](CO)[C@H](O[C@H]4O[C@H](CO)[C@H](O)[C@H](O)[C@H]4O)[C@H](O)[C@H]3O)nn2)cc(OCc2cn([C@@H]3O[C@H](CO)[C@H](O[C@H]4O[C@H](CO)[C@H](O)[C@H](O)[C@H]4O)[C@H](O)[C@H]3O)nn2)c1 [Compound 6]	92	367	–
CCO [ethanol]	–	–	transepithelial electrical resistance (TEER) values [2]: strongly decreased; T84 cell viability (MTT) [3]: significantly reduced
